Source: patent US20050209278A1, “Piperidinyl- and piperazinyl-sulfonylmethyl hydroxamic acids and their use as protease inhibitors” (priority 2002, published 2005)

What was measured:
MMP-13 = biological target: T1, MMP-13 (Homo sapiens, UniProt P45452); experiment: In vitro MMP inhibition, Ki determination (fluorogenic substrate II); type: biochemical; details: value not in parenthesis; read-out: MMP-13 Ki
T1 construct: made in house; host or cells: baculovirus / insect cells
In short: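 Ki determined with human recombinant MMP-13, baculovirus-expressed as proenzyme and activated with APMA. Fluorogenic MCA/Dpa substrate II at 4 μM (at or below Km) with low enzyme in Tris buffer pH 7.5 with CaCl2. Incubation was 1 h at room temperature, with fluorescence read at 330/420 nm.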

MMP-1 = biological target: T2, MMP-1 (Homo sapiens, UniProt P03956); experiment: as above; type: biochemical; details: value not in parenthesis; read-out: MMP-1 Ki
T2 construct: made in house; host or cells: MMP-1-transfected HT-1080 cells (spent media)
T2 sequence (P03956 100-469): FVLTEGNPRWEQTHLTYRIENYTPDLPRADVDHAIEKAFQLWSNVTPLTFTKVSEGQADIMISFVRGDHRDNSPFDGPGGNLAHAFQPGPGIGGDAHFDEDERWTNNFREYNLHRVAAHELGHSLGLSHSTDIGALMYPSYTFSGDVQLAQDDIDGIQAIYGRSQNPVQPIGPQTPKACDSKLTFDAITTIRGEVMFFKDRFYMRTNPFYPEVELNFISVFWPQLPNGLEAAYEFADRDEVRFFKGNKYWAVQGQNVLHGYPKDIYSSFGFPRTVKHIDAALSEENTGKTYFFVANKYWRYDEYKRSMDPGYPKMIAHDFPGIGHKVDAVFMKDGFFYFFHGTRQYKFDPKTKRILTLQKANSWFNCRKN
Description: Several hydroxamic acids and salts thereof were analyzed in in vitro assays to determine their ability to inhibit the MMP cleavage of peptide substrates. […] and IC50 constants were calculated from the assayed hydroxamic acid-MMP interactions.
Human recombinant MMP-1, MMP-2, MMP-9, MMP-13, and MMP-14 were used in this assay. All enzymes were prepared in Assignee's laboratories following usual laboratory procedures. Protocols for the preparation and use of these enzymes are available in the scientific literature. See, e.g., Enzyme Nomenclature (Academic Press, San Diego, Calif., 1992) (and the citations therein). See also, Freije et al., “Molecular cloning and expression of collagenase-3, a novel human matrix metalloproteinase produced by breast carcinomas,” J Biol. Chem., 269(24), 16766-16773 (1994).
The MMP-1 proenzyme was purified from the spent media of MMP-1-transfected HT-1080 cells provided by Dr. Harold Welgus of Washington University (St. Louis, Mo.). The protein was purified on a zinc chelating column.
All MMPs were activated using 4-aminophenylmercuric acetate (“APMA”, Sigma Chemical, St. Louis, Mo.) or trypsin. MMP-9 also was activated using human recombinant MMP-3 (purified in Assignee's laboratory following standard cloning and purification techniques).
Two fluorogenic, methoxycoumarin-containing polypeptide substrates were used in the MMP inhibition assays: [drawing 427] Here, “Dpa” is 3-(2,4-dinitrophenyl)-L-2,3-diaminopropionyl group, and “MCA” is 7-methoxycoumarin-4-yl acetyl. Substrate (I) was purchased from Baychem (Redwood City, Calif.), and substrate II was prepared Assignee's laboratory. Substrate I was used in the IC50 determination assays, while substrate II was used in the Ki determination assays. In the absence of MMP inhibitory activity, either substrate is cleaved at the Gly-Leu peptide bond. This cleavage separates the highly fluorogenic peptide from the 2,4-dinitrophenyl quencher, thus resulting in increase of fluorescent intensity.
The stock solutions of the assayed hydroxamic acids (or salts thereof) were prepared in 1% dimethyl sulfoxide (DMSO). These stock solutions were diluted in Buffer A (100 mM Tris-HCl, 100 mM NaCl, 10 mM CaCl2, 0.05% polyoxyethylene 23 lauryl ether, pH 7.5) to obtain solutions with different hydroxamic acid concentrations, i.e., assay solutions with different concentrations of the assayed MMP inhibitory compound. The experiment controls contained the same amount of Buffer A/DMSO as the assayed sample, but contained no hydroxamic acid (or salt thereof).
The assays from which the Ki determinations were made were performed as follows. The assayed hydroxamic acid samples were incubated in separate wells of untreated white polystyrene plates (Nunc Nalgene International, Rochester, N.Y.), and analyzed on a Tecan SpectraFlour Plus plate reader. The excitation wavelength was 330 nm, and the emission wavelength—420 nm. All samples (assayed hydroxamic acids and controls) were incubated in separate plate wells at room temperature for 1 hr in the presence of 4 μM of MMP substrate (II). In the absence of MMP inhibitory activity, substrate II was cleaved at the Gly-Leu bond resulting in an increase of relative fluorescence. Inhibition was observed as a reduced rate of this increase in relative fluorescence. The various hydroxamic acids were analyzed using a single low enzyme concentration with a single substrate concentration fixed at or below the Km. This protocol is a modification of method by Knight et al., FEBS Lett., 296(3), 263-266 (1992). Apparent inhibitory constants were determined by non-linear regression of reaction velocity as a function of inhibitor and enzyme concentration using Morrison's equation, as described by Kuzmic, Anal. Biochem. 286, 45-50 (2000). […] Since the substrate concentration was chosen to be at or below the Km, the apparent Ki's from this analysis were reported as Ki's without correction for the influence of substrate.

| Structure (SMILES) | Ki (MMP-13) [nM] | Ki (MMP-1) [nM] |
| --- | --- | --- |
| CCCCOc1ccc(N2CCN(S(=O)(=O)C3(C(=O)NO)CCN(C(=O)OCCF)CC3)CC2)cc1 [Example 113] | 0.25 | > 10000 |
| CCc1ccc(N2CCN(S(=O)(=O)C3(C(=O)NO)CCOCC3)CC2)nc1 [Example 114] | 0.748 | 1610 |
| CCCCOc1ccc(N2CCN(S(=O)(=O)C3(C(=O)NO)CCN(C(=O)OCC(F)(F)F)CC3)CC2)cc1 [Example 115] | 1.17 | > 10000 |
| CC(C)(C)N1CCC(C(=O)NO)(S(=O)(=O)N2CCN(c3ccc(OCCCC(F)(F)F)cc3F)CC2)CC1 [Example 116] | 1.21 | > 10000 |
| CCCCOc1ccc(N2CCN(S(=O)(=O)C3(C(=O)NO)CCN(C(=O)NCCOC)CC3)CC2)cc1 [Example 118] | 0.43 | > 10000 |
| COCCN1CCC(C(=O)NO)(S(=O)(=O)N2CCN(c3ccc(OCC(F)(F)F)cc3)CC2)CC1 [Example 119] | 0.79 | > 10000 |
| CCCCOc1ccc(N2CCN(S(=O)(=O)C3(C(=O)NO)CCN(c4ccc(O)cc4)CC3)CC2)cc1 [Example 121] | 0.68 | > 10000 |
| O=C(c1cccnc1)N1CCC(C(=O)NO)(S(=O)(=O)N2CCN(c3ccc(OCCCC(F)(F)F)cc3)CC2)CC1 [Example 122] | 0.03 | > 10000 |
| CCCCOc1ccc(N2CCN(S(=O)(=O)C3(C(=O)NO)CCN(C(=S)N(C)C)CC3)CC2)cc1 [Example 123] | 0.74 | > 10000 |
| CCCCOc1ccc(N2CCN(S(=O)(=O)C3(C(=O)NO)CCN(C(=O)N4CCOCC4)CC3)CC2)cc1 [Example 124] | 0.121 | > 10000 |
| CCCCOc1ccc(N2CCN(S(=O)(=O)C3(C(=O)NO)CCN(c4ccc(C)cn4)CC3)CC2)cc1 [Example 125] | 1.67 | > 10000 |
| CCCCOc1ccc(N2CCN(S(=O)(=O)C3(C(=O)NO)CCN4CCCC4C3)CC2)cc1F (stereo not drawn) [Example 126] | 7.06 | > 10000 |
| CCCCOc1ccc(N2CCN(S(=O)(=O)C3(C(=O)NO)CCN(C(=O)c4cc5ccccc5o4)CC3)CC2)cc1 [Example 127] | 6.18 | > 10000 |
| CC(C)CCOc1ccc(N2CCN(S(=O)(=O)C3(C(=O)NO)CCN(C4CC4)CC3)CC2)cc1 [Example 128] | 0.211 | > 10000 |
| CCCCOc1ccc(N2CCN(S(=O)(=O)C3(C(=O)NO)CCN(c4ccc(OCCOC)nn4)CC3)CC2)cc1 [Example 129] | 0.302 | > 10000 |
| CCCCOc1ccc(N2CCN(S(=O)(=O)C3(C(=O)NO)CCN(c4ccc(C)nc4)CC3)CC2)cc1 [Example 131] | 0.621 | > 10000 |
| O=C1c2ccccc2C(=O)N1CCCCc1ccc(N2CCN(S(=O)(=O)C3(C(=O)NO)CCOCC3)CC2)nc1 [Example 132] | 0.395 | 66.1 |
| CC(C)CCc1ccc(N2CCN(S(=O)(=O)C3(C(=O)NO)CCOCC3)CC2)nc1 [Example 133] | 0.227 | > 10000 |

| Structure (SMILES) | Ki (MMP-13) [nM] | Ki (MMP-1) [nM] |
| --- | --- | --- |
| CCCc1ccc(N2CCN(S(=O)(=O)C3(C(=O)NO)CCOCC3)CC2)nc1 [Example 136] | 0.423 | 2380 |
| Cc1ccc(N2CCN(S(=O)(=O)C3(C(=O)NO)CCOCC3)CC2)nc1 [Example 138] | 1.15 | 1380 |
| CCCCOc1ccc(N2CCN(S(=O)(=O)C3(C(=O)NO)CCN(c4cc(C)ccn4)CC3)CC2)cc1 [Example 139] | 2.03 | 7240 |
| CCCCOc1ccc(N2CCN(S(=O)(=O)C3(C(=O)NO)CCN(c4cnccn4)CC3)CC2)cc1 [Example 140] | 0.446 | > 10000 |
| CCCCOc1ccc(N2CCN(S(=O)(=O)C3(C(=O)NO)CCN(C(=O)OCCOC)CC3)CC2)cc1 [Example 141] | 0.151 | 8900 |
| CCCCOc1ccc(N2CCN(S(=O)(=O)C3(C(=O)NO)CCN(c4ccc(OC)nc4)CC3)CC2)cc1 [Example 142] | 0.505 | > 10000 |
| CCCCOc1ccc(N2CCN(S(=O)(=O)C3(C(=O)NO)CCN(C(=O)c4cc5ccccc5s4)CC3)CC2)cc1 [Example 143] | 7.05 | > 10000 |
| COCCN1CCC(C(=O)NO)(S(=O)(=O)N2CCN(c3ccc(OCC(F)(F)C(F)(F)F)cc3)CC2)CC1 [Example 144] | 0.306 | > 10000 |
| CCCCOc1ccc(N2CCN(S(=O)(=O)C3(C(=O)NO)CCOCC3)CC2)cc1 [Example 145] | 0.347 | > 10000 |
| CCCCc1ccc(N2CCN(S(=O)(=O)C3(C(=O)NO)CCN(c4ccc(C)cc4)CC3)CC2)cc1 [Example 146] | 9.38 | > 10000 |
| CCCCCc1ccc(N2CCN(S(=O)(=O)C3(C(=O)NO)CCN(c4ccc(C)cc4)CC3)CC2)cc1 [Example 147] | 7.35 | > 10000 |
| COCCN1CCC(C(=O)NO)(S(=O)(=O)N2CCN(c3ccc(OCCC(C)C)cc3)CC2)CC1 [Example 148] | 0.24 | > 10000 |
| CCCCOc1ccc(N2CCN(S(=O)(=O)C3(C(=O)NO)CCN(c4ccccn4)CC3)CC2)cc1 [Example 149] | 1.31 | > 10000 |
| CCCCOc1ccc(N2CCN(S(=O)(=O)C3(C(=O)NO)CCN(c4nc5ccccc5o4)CC3)CC2)cc1 [Example 150] | 11.2 | > 10000 |
| O=C(NO)C1(S(=O)(=O)N2CCN(c3ccc(SC(F)(F)F)cc3)CC2)CCN(Cc2ccccc2)CC1 [Example 152] | 5.74 | > 10000 |
| O=C(NO)C1(S(=O)(=O)N2CCN(c3ccc(OCCCC(F)(F)F)cc3)CC2)CCN(C2CC2)CC1 [Example 153] | 0.099 | > 10000 |
| CCCCOc1ccc(N2CCN(S(=O)(=O)C3(C(=O)NO)CCN(c4cccnc4)CC3)CC2)cc1 [Example 154] | 0.561 | > 10000 |
| CCCCOc1ccc(N2CCN(S(=O)(=O)C3(C(=O)NO)CCN(c4ncc(CC)cn4)CC3)CC2)cc1 [Example 155] | 3.36 | > 10000 |
